Data taken from patent US20170321163A1, “ENZYME STABILIZERS” (Henkel AG & Co. KGaA, priority 2014, published 2017).

System: protease
Assay: Storage stability of protease in detergent formulation, residual proteolytic activity by AAPF-pNA assay
Format: biochemical
Settings: 1% candidate compound, 1% protease in detergent formulation; stored 8 weeks at 30° C.; AAPF-pNA substrate, 25° C., pH 8.6, 410 nm
Protocol: The storage stability of protease-containing detergents and cleaning agents was tested for use as enzyme stabilizers in the presence of candidate compounds. For this purpose, the candidate compounds were formulated in the presence of up to 1% (w/w) 1,2-propanediol in a detergent or cleaning agent formulation (see Table 2). The protease (1% PUR) was then added to the formulation, and the formulation stored for 8 weeks at 30° C.
In parallel batches, the proteolytic activity of 1% protease was determined in 4% PG (1,2-propanediol), 85% matrix (see Table 1), then, each following incubation with 1% of the candidate compound (specified in w/w; QS 100% with water) determined in half of the batches in the formulation as indicated in Table 1 by the release of the chromophore para-nitroaniline from the succinyl-alanine-alanine-proline-phenylalanine para-nitroanilide substrate (AAPF-pNA; Bachem L-1400). The release of the pNA caused an increase in the absorbance at 410 nm, the progress over time of which is a measure of enzymatic activity. […]
For evaluation, the initial values for the proteolytic activity of the agent in question were compared to the values determined after storage. […] The stabilizing effect of each tested compound is thus measured as a relative percentage increase in the residual protease activity.

`CC(=O)[O-].CCn1cc[n+](C)c1` [1-ethyl-3-methylimidazolium acetate] was tested, and the “Relative residual activity after incubation with KV” value was 122%.
